# Laboratory results reported in patent publication US20070213291A1, “Therapeutically useful synthetic oligonucleotides” (priority 1999, published 2007).
# “And” between values parts separate entries of the source, which are not always exact repeats. Equal values may be shown once.
# Experiments:
# Type in all cases: cell-based
# [1] = system: A20 murine B leukemia cells; assay: Inhibition of A20 cell proliferation (MTT); conditions: 100 μg/ml, 48 h
# Protocol: (§1) Cells were seeded in 6 (1 ml/well), 24 (0.5 ml/well) or 96 (0.1 ml/well) well flat-bottom microplates and were maintained at 37° C. in a 5% CO2 atmosphere. Unless stated otherwise, 2.5×10^5 cells/ml were incubated with 0 μg/ml (control) and 100 μg/ml (treated) of 2 to 45 base sequences containing A, C, G and T for 48 h.
# (§2) Cell proliferation was measured using dimethylthiazol-diphenyl-tetrazolium (MTT) reduction (Mosman et al. J. Immunol. Methods 65:55, 1983). MTT was measured at a wavelength of 570 nm using a multiplate spectrophotometer reader (ELX800, Bio-TEK Instruments Inc., Winooski, Vt.).
# A20 murine leukemia B cells are a suspension tumor model. A20 murine leukemia B cells were incubated with 6 base GT sequences (Table 19).
# [2] = system: THP-1 human acute monocytic leukemia cells; assay: Cytokine production by THP-1 cells (ELISA); conditions: THP-1, 1×10^6 cells, 100 μg/ml, 48 h; for ↑ IL-12 (fold increase treated vs control cells): p70 complex and free p40
# In short: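 1×10^6 cells exposed to 100 μg/ml of each oligonucleotide sequence for 48 h at 37° C in 5% CO2, unless stated otherwise. Cytokines quantified in culture supernatant by ELISA, IL-12 assay detecting both p70 and free p40; values are fold increase over untreated control cells.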
# [3] = system: chimpanzee PBMCs; assay: Cytokine production by chimpanzee PBMC (ELISA); conditions: PBMC of 4 healthy chimpanzees, 100 μg/ml, 48 h
# In short: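 PBMCs from 4 healthy chimpanzees (1×10^6 cells) were incubated 48 h at 37 °C, 5% CO2 with 100 μg/ml of each 6-base sequence. Supernatant IL-10, IL-12 (p70 plus free p40) and TNF-alpha were measured by ELISA. Values are fold increase over untreated control cells.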
# [4] = system: HL-60 human promyelocytic leukemia cells; assay: Inhibition of HL-60 cell proliferation (MTT); conditions: 100 μg/ml, 48 h
# Protocol: as §1, §2
# HL-60 promyelocytic leukemia cells are a p53 mutated human suspension tumor model. HL-60 cells were incubated with 6 base GT sequences (Table 6).
# [5] = system: Jurkat human leukemia T cells; assay: NuMA release into supernatant (ELISA); conditions: for % NuMA released (treated vs untreated cells): 50 μM sequence
# In short: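 Jurkat T cells (1×10^6/ml) exposed to GT-containing oligonucleotide sequences, at 50 μM in some experiments, for 24 h in some experiments. NuMA released into the supernatant quantified by commercial ELISA.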
# [6] = system: Jurkat human leukemia T cells; assay: Apoptosis by phosphatidylserine/annexin V-FITC flow cytometry; conditions: 50 μM sequence
# In short: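 Jurkat cells were exposed to 3–7-base oligonucleotides (GT, ACGT, AG, GG, AGT, CGT sequences) at 50 μM. Separately, 6-base GT and complementary AC sequences, alone or hybridized 1:1 (10 min, 65 °C), were applied for 24 h. Phosphatidylserine exposure was quantified by flow cytometry with FITC-annexin V.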
Sequence,% INHIBITION of A20 murine B leukemia cell proliferation [1] [%],↑ IL-6 (fold increase treated vs control cells) [2] [x],↑ IL-12 (fold increase treated vs control cells) [2],↑ IL-12 (fold increase treated vs control cells) ([2]; listed as GoGoGoToGoGo) [x],IL-10 fold increase: mean +/− SD [3],IL-12 fold increase: mean +/− SD [3],TNF-alpha fold increase: mean +/− SD [3],% INHIBITION of HL-60 human promyelocytic leukemia cell proliferation [4] [%],% NUMA RELEASED ([5]; Jurkat 1×10^6/ml) [%],% NuMA released (treated vs untreated cells) ([5]; Jurkat) [%],"% NuMA released (untreated vs treated cells) ([5]; Jurkat, 24 h, sequences heated 10 minutes at 65° C.) [%]",% of cells in apoptosis (positive for PS/A-V staining) [6] [%]
GGGTGG [SEQ ID NO:25],11,3.1,2.3x and 2.0x,2.0,2.5 +/− 1.5 fold increase,13.5 +/− 8.4 fold increase,11.7 +/− 6.7 fold increase,35,269,69,69,27
GTGTGT [SEQ ID NO:10],9,5.0,2.2x,–,4.0 +/− 2.1 fold increase,14.0 +/− 8.5 fold increase,12.9 +/− 6.4 fold increase,13,–,90,–,33
TTGTTT [SEQ ID NO:26],15,5.3,3.5x and 3.8x,–,1.4 +/− 0.9 fold increase,12.3 +/− 8.5 fold increase,7.5 +/− 4.6 fold increase,16,–,23,–,14
